Laboratory results: patent US5654310A, “Triazolopyrimidones their preparation and use” (BASF Aktiengesellschaft, priority 1992, dated 1997)

Assays:
[1] = target: T1, NMDA (N-methyl-D-aspartate) receptor (Rattus norvegicus, UniProt P35439); test: Binding of ^3 H-5,7-dichlorokynurenic acid (displacement on rat cerebral membranes); details: rat cerebra membranes, pH 7.4, 30 minutes on ice
T1 construct: freshly removed rat cerebra were homogenized; from tissue; host or cells: rat cerebrum, washed membranes

[2] = target: AMPA receptor; test: Binding of ^3 H-AMPA (displacement on rat cerebral membranes); details: rat cerebra membranes, pH 7.1, 60 minutes on ice
Description: For this, the membrane material was treated in the presence of the compounds according to the invention with the radio-labeled substances ^3 H-2-amino-3-hydroxy-5-methyl-4-isoxazolepropionic acid (^3 H-AMPA) and ^3 H-5,7-dichlorocyanuric [sic] acid, which bind to specific receptors (AMPA and NMDA (N-methyl-D-aspartate) receptors respectively). Subsequently the radioactivity in the treated membranes was measured by scintillation counting. It was possible from the bound radioactivity to determine the amounts of bound 3H AMPa and ^3 H-5,7-dichlorokyanurenicacid, or the amounts of each of these radiolabeled substances displaced.
1. Binding of ^3 H-2-amino-3-hydroxy-5-methyl-4-isoxazolepropionic acid (^3 H-AMPA).
To prepare the membrane material, freshly removed rat cerebra were homogenized together with about 15 times the volume of a buffer solution A composed of 30 mM α,α,α-tris(hydroxymethyl)methylamine hydrochloride (TRIS-HCl) and 0.5 mM ethylenediaminetetraacetic acid (EDTA), pH 7.4, using an Ultra-TURRAX. The suspension was centrifuged at 48,000 g for 20 min. After removal of the supernatant liquid, the protein-containing membrane material present in the pellet was washed three times by suspension in buffer solution A and subsequent centrifugation at 48,000 g for 20 minutes each time. The membrane material was then suspended in 15 times the volume of buffer solution A and incubated at 37° C. for 30 minutes. Subsequently the protein material was washed twice by centrifugation and suspension and was stored at -70° C. until used.
For the binding test, the protein material was thawed at 37° C. and washed twice by centrifugation at 48,000 g (20 min) and subsequent suspension in a buffer solution B composed of 50 mM TRIS-HCl, 0.1M potassium thiocyanate and 2.5 mM calcium chloride, pH 7.1. […] The filtrate [sic] was subsequently washed with 5 ml of cold buffer solution B in order to separate bound and free ^3 H-AMPA from one another. After measurement of the radioactivity of the bound ^3 H-AMPA in the membrane material by scintillation counting, the KI was determined by regression analysis of the displacement plots.

SMILES	Ki [1]	Ki [2]
O=C(NCc1ccccc1)c1nc2c3c([nH]c(=O)n2n1)CCCC3 [Example 3, 7,8,9,10-Tetrahydro-1,2,4-triazolo[1,5-c]quinazolin-5-one-2-carboxylic acid N-benzylolylamide]	1.2 µM	1.5 µM
O=C(O)c1nc2c3c([nH]c(=O)n2n1)CCC3 [Example 6]	1.6 µM	–
O=C(O)CCc1nc2c3c([nH]c(=O)n2n1)-c1ccccc1CC3 [Example 11]	0.1 µM	1 µM
O=C(NCc1ccc(Cl)c(Cl)c1)c1nc2c3c([nH]c(=O)n2n1)CCCC3 [Example 12]	1.6 µM	–
O=C(NCc1ccc([N+](=O)[O-])cc1)c1nc2c3c([nH]c(=O)n2n1)CCCC3 [Example 15]	2 µM	–
O=C(O)c1nc2c3c([nH]c(=O)n2n1)CCSC3 [Example 18]	0.8 µM	–
CCOC(=O)c1nc2c3c([nH]c(=O)n2n1)CC1CCCCC1C3 (stereo not shown) [Example 21]	2.6 µM	1.7 µM

The next lines start with the values.

Ki [1]	Ki [2]	SMILES
0.2 µM	–	O=C(O)c1nc2c3c(nc(=O)n2[nH]1)CCCC3 [Example 2, 7,8,9,10-Tetrahydro-1,2,4-triazolo[1,5-c]quinazolin-5-one-2-carboxylic acid]
0.4 µM	–	CCOC(=O)c1nc2c3c([nH]c(=O)n2n1)CCCCC3 [Example 7]
0.2 µM	–	O=C(O)c1nc2c3c([nH]c(=O)n2n1)CCCCC3 [Example 8]
0.65 µM	–	CCOC(=O)c1nc2c3c([nH]c(=O)n2n1)-c1ccccc1CC3 [Example 9]
0.3 µM	1.7 µM	O=C(O)c1nc2c3c([nH]c(=O)n2n1)-c1ccccc1CC3 [Example 10]
